# Measured values published in patent US20180200275A1, “METHOD AND THE USE TO IMPROVE ORAL ABSORPTION OF NICOTINAMIDE AND NICOTINAMIDE RIBOSIDE” (Better Standing Company Inc., priority 2017, published 2018).
# How the values were obtained:
# [1] = cited from earlier work
# [2] = effects noted by a person (the inventor) after oral consumption; type: in vivo, human; settings: 50 mg nicotinamide or 125 mg N-Ribosylnicotinamide chloride with water only, one person
compound,measurement,setting,value
"NC(=O)c1cccnc1 [nicotinamide, 3-pyridinecarboxamide]",pKa of the pyridine ring nitrogen atom,[1],4.14
same,effects of consuming shortly before bed with water only,[2],no discernible effects
